The results in this text go back to PubChem BioAssay (NCI).

Test systems include HL-60(TB) leukemia; BT-549 breast; SK-MEL-2 melanoma; NCI-H226 lung; SN12C renal; SK-MEL-5 melanoma; PC-3 prostate; NCI-H23 lung; RXF 393 renal; UACC-257 melanoma.
Holding throughout (test): growth of human tumour cells (NCI), 48 h

SMILES strings stand for the structures. “And” between values parts separate entries of the source, which are not always exact repeats. Equal values may be shown once.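 Cells were grown in 96-well plates and exposed to each compound for 48 hours at five concentrations; endpoints were interpolated linearly between bracketing concentrations, or set to the highest concentration if not reached. GI50 is the concentration that inhibits growth by half. TGI is the concentration that stops growth completely.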 Some results are limits rather than exact numbers.

As for `O=C(/C=C/c1ccc([N+](=O)[O-])o1)NNC(=O)c1cc2ccccc2cc1O`, the GI50 in the test on HL-60(TB) leukemia was 0.962 µM; in the test on BT-549 breast, 1.49 µM; with SK-MEL-2 melanoma, 1.44 µM; in the test with NCI-H226 lung it was 3.51 µM; in the test with SN12C renal it was 1.49 µM; in the test on SK-MEL-5 melanoma, 0.656 µM. Besides, the GI50 in the test on PC-3 prostate was 3.36 µM; in the test on NCI-H23 lung it was 1.05 µM; with RXF 393 renal, 0.236 µM; in the test with UACC-257 melanoma, 0.906 µM. Further, the TGI in the test on HL-60(TB) leukemia was > 100 µM; with BT-549 breast it was 5.74 µM; in the test on SK-MEL-2 melanoma, 3.97 µM; in the test on NCI-H226 lung, 34.1 µM; in the test on SN12C renal it was > 100 µM; in the test on SK-MEL-5 melanoma, 2.04 µM. Further, the TGI in the test on PC-3 prostate is > 100 µM; with NCI-H23 lung, 5.03 µM; with RXF 393 renal, 0.94 µM; in the test with UACC-257 melanoma, 3.92 µM.
For the compound `O=Nc1c2cccnc2n2nnc3ccc(Cl)cc3c12`, the GI50 in the test on HL-60(TB) leukemia is 0.272 µM; in the test with BT-549 breast it was 3.57 µM; in the test with SK-MEL-2 melanoma, 3.6 µM; with NCI-H226 lung, 4.96 µM; in the test on SN12C renal, 2.06 µM; with SK-MEL-5 melanoma, 5.73 µM. For the same compound, the GI50 is 1.09 µM in the test on PC-3 prostate, 2.09 µM with NCI-H23 lung, 0.65 µM in the test with RXF 393 renal and 5.87 µM in the test with UACC-257 melanoma. Moreover, the TGI stood at 50 µM in the test on HL-60(TB) leukemia; 12.3 µM in the test on BT-549 breast; 13.3 µM with SK-MEL-2 melanoma; 21 µM in the test on NCI-H226 lung; 11.7 µM in the test with SN12C renal; 14.5 µM with SK-MEL-5 melanoma. The TGI with PC-3 prostate was found to be 7.98 µM; with NCI-H23 lung it was 10.2 µM; with RXF 393 renal, 1.64 µM; in the test with UACC-257 melanoma, 23.3 µM.
As to `CCc1ccc(C2=C(O)C(=O)C(c3ccc(CC)cc3)=C(O)C2=O)cc1`, the GI50 in the test on HL-60(TB) leukemia was 2.6 µM; in the test on BT-549 breast it was 1.76 µM; in the test on SK-MEL-2 melanoma it was 1.18 µM; in the test on NCI-H226 lung, 1.9 µM; with SN12C renal, 2.28 µM; in the test with SK-MEL-5 melanoma it was 1.89 µM. In addition, the GI50 with PC-3 prostate was 2.17 µM; in the test with NCI-H23 lung it was 1.96 µM; with RXF 393 renal, 3.34 µM; in the test with UACC-257 melanoma it was 2.95 µM. Besides, the TGI was 6.24 µM in the test with HL-60(TB) leukemia; 5.62 µM in the test with BT-549 breast; 3.35 µM in the test with SK-MEL-2 melanoma; 7.34 µM in the test on NCI-H226 lung; 9.79 µM in the test on SN12C renal; 3.86 µM with SK-MEL-5 melanoma. For the same compound, the TGI was found to be 7.95 µM with PC-3 prostate, 5.23 µM in the test with NCI-H23 lung, 12.8 µM in the test on RXF 393 renal and 11.1 µM with UACC-257 melanoma.
Regarding `CC1(C)C2CCC1C(=O)C(C=O)C2` (stereo not given), the TGI with HL-60(TB) leukemia, with BT-549 breast, with SK-MEL-2 melanoma, with NCI-H226 lung, with SN12C renal and in the test on SK-MEL-5 melanoma was > 100 µM throughout. Also, the TGI in the test on PC-3 prostate, with NCI-H23 lung, in the test on RXF 393 renal and in the test on UACC-257 melanoma was > 100 µM each time.
For the compound `O=C1Cc2c(-c3ccccc3)cc(-c3cccc(Cl)c3)nc2-c2ccccc2N1`, the TGI in the test on HL-60(TB) leukemia was > 100 µM; with BT-549 breast, 22.1 µM; in the test with SK-MEL-2 melanoma, 24.4 µM; with NCI-H226 lung, 17.7 µM; in the test on SN12C renal, 16.2 µM; with SK-MEL-5 melanoma, > 48.7 µM. The TGI in the test on PC-3 prostate stood at 23.2 µM; in the test with NCI-H23 lung, 16.8 µM; in the test with RXF 393 renal, 6.28 µM; with UACC-257 melanoma, 24.1 µM.
As for `COC(=O)c1ccc2c(c1)c1c(C)c3cnccc3c(C)c1n2C`, the GI50 in the test on HL-60(TB) leukemia was 0.243 µM; with BT-549 breast, 0.247 µM; in the test on SK-MEL-2 melanoma it was 0.107 µM; with NCI-H226 lung, 0.0574 µM; in the test on SN12C renal, 0.044 µM; in the test with SK-MEL-5 melanoma, 0.0866 µM. Also, the GI50 was 0.0579 µM in the test on PC-3 prostate, 0.053 µM in the test on NCI-H23 lung, 0.0512 µM in the test on RXF 393 renal and 0.101 µM with UACC-257 melanoma. The TGI in the test with HL-60(TB) leukemia was found to be 1.05 µM; with BT-549 breast it was 3.54 µM; with SK-MEL-2 melanoma, 0.471 µM; in the test on NCI-H226 lung it was 0.341 µM; in the test on SN12C renal it was 1.3 µM; with SK-MEL-5 melanoma it was 0.253 µM. For the same compound, the TGI with PC-3 prostate came to 4.06 µM; in the test with NCI-H23 lung it was 0.328 µM; in the test with RXF 393 renal, 0.286 µM; in the test on UACC-257 melanoma, 0.511 µM.
As to `NC(=O)c1ccccc1NC(=O)C(=O)C(c1cnc2ccc([N+](=O)[O-])cc2n1)[N+](=O)[O-]` (stereo not given), the TGI in the test on HL-60(TB) leukemia, in the test with BT-549 breast, with SK-MEL-2 melanoma, with NCI-H226 lung, in the test on SN12C renal and in the test with SK-MEL-5 melanoma was > 100 µM in each case. For the same compound, the TGI in the test with PC-3 prostate, with NCI-H23 lung, in the test with RXF 393 renal and in the test with UACC-257 melanoma was > 100 µM in each case.
Consider `CCCCS(=N)(=O)CC[C@H](N)C(=O)O` (stereo not given in full), for which the GI50 in the test with HL-60(TB) leukemia was 32.9 µM; with BT-549 breast, > 10000 µM; in the test on SK-MEL-2 melanoma, > 7640 µM; in the test on NCI-H226 lung it was > 10000 µM; in the test on SN12C renal, > 10000 µM; in the test with SK-MEL-5 melanoma, > 10000 µM. Also, the GI50 with PC-3 prostate, in the test with NCI-H23 lung, in the test with RXF 393 renal and with UACC-257 melanoma was > 10000 µM each time. Further, the TGI was 1270 µM and 224 µM in the test with HL-60(TB) leukemia; > 10000 µM in the test with BT-549 breast; > 10000 µM in the test with SK-MEL-2 melanoma; > 10000 µM in the test on NCI-H226 lung; > 10000 µM in the test with SN12C renal; > 10000 µM with SK-MEL-5 melanoma. In addition, the TGI with PC-3 prostate was > 10000 µM; with NCI-H23 lung, 5000 µM and > 10000 µM; in the test on RXF 393 renal, > 10000 µM; in the test on UACC-257 melanoma, > 10000 µM.
`NC(N)=NNC(=O)C(=O)O`: the TGI in the test with HL-60(TB) leukemia, in the test on BT-549 breast, in the test on SK-MEL-2 melanoma, in the test on NCI-H226 lung, in the test with SN12C renal and in the test with SK-MEL-5 melanoma was > 100 µM in each case. In addition, the TGI in the test on PC-3 prostate, in the test with NCI-H23 lung, with RXF 393 renal and in the test on UACC-257 melanoma was > 100 µM in each case.
